Test results as given in patent US12344584B2, “KCNQ potentiators” (Eli Lilly and Company, priority 2019, dated 2025).

Test system: peripheral axons
Assay: Threshold tracking of peripheral nerve excitability in anesthetized rats
Assay type: in vivo
Details: rat
Method: Threshold Tracking to Measure the Effects of Example 1 at 3.10 and 30 mg/kg IP on Peripheral Nerve Excitability
Threshold tracking is a non-invasive technique that allows measurement of the excitability properties of peripheral axons by providing information about their membrane potential and ion channel function.
16 male Wistar rats from Charles River, weighing between 307-446 g ware used. Animals are group housed with standard housing conditions (4 per cage, 07:00 h to 19:00 h light phase, constant temperature (21° C.) and humidity, and free access to food and water, as well as environmental enrichment).
Rats are anesthetized with isoflurane (2-2.5%, O2 at 0.5 L/min) and then placed on their back on a heating pad to keep the tail temperature above 32° C. The placement of the ring electrodes are marked out and the marked sections of the tail are scraped with a blade to remove hair and the top layer of skin. The sites are cleaned with water and dried, allowing fora good conduction between the skin and the sticky electrodes.
A sticky ring stimulating electrode (+ve anode) is wrapped around the foot. A second sticky ring stimulating electrode (−ve cathode) is wrapped 1.5 cm from the base of the tail. A needle recording electrode is placed just off center on the top of the tail, 6 cm distal to the stimulating cathode at the base of the tail. A needle reference electrode is placed just off center on the top of the tail, 2 cm distal to the recording electrode. A sticky ground electrode is wrapped around the tail 2 cm proximal from the recording electrode.
• Start the Multitrack program (description below) and Spike. • Record 15 min of stable baseline • After the 15 min, dose with Example 1 or HEC • Take blood spot for PK at the following: • 10 min post dose • 20 min post dose • 30 min post dose • 40 min post dose • 45 min after IP (intraperitoneal) dosing with Example 1, dose XE-991 (XE-991 is a commercially available compound that blocks KCNQ potentiator effects in a formalin assay in vivo—see Y. Zheng, et al., “Activation of peripheral KCNQ channels relieves gout pain,” Pain, 156 (2015) 1025-1035; and R. Zaczek, et al., “Two New Potent Neurotransmitter Release Enhancers, 10,10-Bis(4-Pyridinylmethyl)-9(10H)-Anthracenone and 10,10-Bis(2-Fluoro-4-Pyridinylmethyl)-9(10H)-Anthracenone: Comparison to Linopirdine” The Journal of Pharmacology and Experimental Therapeutics, 285:724-730, 1998. • (XE-991 is only dosed after Example 1 at 30 mg/kg) • Take blood spot for PK at the following: • 10 min post dose (55 min post Example 1 administration) • 20 min post dose (65 min post Example 1 administration) • 30 min post dose (75 min post Example 1 administration) • 40 min post dose (85 min post Example 1 administration)
In threshold tracking assay to measure the excitability properties of peripheral axons studies in rat, compound is administered by IP at 3, 10 or 30 mg/kg using 1% hydroxyethylcellulose: 0.25% polysorbate 80:0.05% antifoam:purified water (HEC) formulation. Dry blood spots (DBS) are collected around 10, 20, 30 and terminal 40 min post-dose. DBS samples are dried at RT for around 2 h. Brain samples are obtained at terminal time point and frozen until analysis. DBS samples are shipped and stored at RT.

## CC(C)(C)[C@H](O)CNC(=O)NCc1ccnc(OCC(F)(F)F)c1 [Example 1, 1-[(2S)-2-hydroxy-3,3-dimethyl-butyl]-3-[[2-(2,2,2-trifluoroethoxy)-4-pyridyl]methyl]urea]
3 mg/kg (IP)
  Threshold Tracking absolute threshold for 40% CMAP (±SEM): 121 (±10) % baseline
10 mg/kg (IP)
  Threshold Tracking absolute threshold for 40% CMAP (±SEM): 140 (±8) % baseline
30 mg/kg (IP)
  Threshold Tracking absolute threshold for 40% CMAP (±SEM): 160 (±18) % baseline
30 mg/kg IP, Bonferroni multiple comparisons test
  absolute threshold compared with vehicle: significantly increased absolute threshold
